Test results taken from the NIST ThermoML archive (doi:10.1016/j.tca.2005.06.034).
± gives the expanded uncertainty stated by the source.

Columns and labels:
[1] = Molar enthalpy of transition or fusion; details: Crystal; DSC
[2] = Crystal

In the case of CN1N=N[NH+](N)C1N.O=[N+]([O-])[O-] (stereo not drawn) [1,5-diamino-4-methyl-4,5-dihydro-1H-tetrazol-1-ium nitrate], the “Molar enthalpy of transition or fusion” value [1] is reported as 5.16e-06 ± 1.7e-07 kcal/mol, the mass density ([2]; 571.3 K, 101.33 kPa, X-ray) is reported as 1506 ± 2 kg/m3 and the Normal melting temperature ([2]; DTA) is reported as 121.00 ± 1 °C.
